Assay results: paper PMC8943139, “Cryo-EM structure of transmembrane AAA+ protease FtsH in the ADP state” (Communications Biology, 2022)

B1: Thermotoga maritima FtsH (TmFtsH) H423Y mutant, full length (enzyme, UniProt Q9WZ49 1-610, looked up)
chain: MNRSNIWNLLFTILIIVTLFWLARFFYVENSPVSKLSYTSFVQMVEDERSVVSEVVIRDDGVLRVYTKDGRVYEVDAPWAVNDSQLIEKLVSKGIKVSGERSGSSSFWINVLGTLIPTILFIVVWLFIMRSLSGRNNQAFTFTKSRATMYKPSGNKRVTFKDVGGAEEAIEELKEVVEFLKDPSKFNRIGARMPKGILLVGPPGTGKTLLARAVAGEANVPFFHISGSDFVELFVGVGAARVRDLFAQAKAHAPCIVFIDEIDAVGRHRGAGLGGGHDEREQTLNQLLVEMDGFDSKEGIIVMAATNRPDILDPALLRPGRFDKKIVVDPPDMLGRKKILEIHTRNKPLAEDVNLEIIAKRTPGFVGADLENLVNEAALLAAREGRDKITMKDFEEAIDRVIAGPARKSKLISPKEKRIIAYYEAGHAVVSTVVPNGEPVHRISIIPRGYKALGYTLHLPEEDKYLVSRNELLDKLTALLGGRAAEEVVFGDVTSGAANDIERATEIARNMVCQLGMSEELGPLAWGKEEQEVFLGKEITRLRNYSEEVASKIDEEVKKIVTNCYERAKEIIRKYRKQLDNIVEILLEKETIEGDELRRILSEEFEKVVE
notes: FtsH (Filamentation Temperature Sensitive Protein H) of Thermotoga maritima, full-length cDNA in the pET24-derived pMSCG-7 plasmid, with the H423Y mutation; 610 residues are named in the comparison with YME1; The vector probably adds an N-terminal His6 tag with a TEV site (surmised), and no cleavage is described; The atomic model 7TDO covers only the ATPase and protease domains (2484 residues in …)

What was measured:
[1] = molecular target: T1, TmFtsH (FtsH from Thermotoga maritima), full length (Thermotoga maritima, UniProt Q9WZ49, H423Y); assay: cryo-EM structure ([…] A); assay type: binding; settings: six ADP per hexamer, one in each ATPase domain; endogenous co-purified ADP, none added; MSP1D1 nanodiscs, pH 7.6; C6 symmetry
T1 construct: full length, His-tag purification (HisTrap), E. coli BL21(DE3) pLysS membranes, LDAO, reconstituted in MSP1D1 nanodiscs with soybean polar lipids; homohexamer; only ATPase and protease domains modelled (2484 residues per hexamer)

[2] = molecular target: the molecule itself; assay: cryo-EM structure; TmFtsH H423Y in MSP1D1 nanodiscs (soybean polar lipids), diluted in 20 mM HEPES pH 7.6, 100 mM NaCl, 0.05% CHAPS; no ADP or ATP added; C6 reconstruction at 3.15 Å (C1: 3.4 Å) of the ATPase and protease domains; full-length reconstruction at 7.9 Å without symmetry

Molecule	cryo-EM structure (3.15 A) [1]	stoichiometry N [2]
Nc1ncnc2c1ncn2[C@@H]1O[C@H](COP(=O)(O)OP(=O)(O)O)[C@@H](O)[C@H]1O [ADP]	ADP bound endogenously to TmFtsH and survived the co-purification and reconstitution processes	–
B1	–	6
